Measured values reported in patent US20120029002A1, “BENZIMIDAZOLE AND PYRAZOLOPYRIDINE DERIVATIVES FOR TREATING AND/OR PREVENTING CARDIOVASCULAR DISEASES” (BAYER SCHERING PHARMA AKTIENGESELLSCHAFT, priority 2009, published 2012).

tested on: aorta rings; test: Vasorelaxant effect in vitro (phenylephrine-contracted rabbit aorta rings); assay type: cell-based, Rabbits; details: Oryctolagus cuniculus; concentration necessary to reduce the height of the phenylephrine-induced contraction of rabbit aorta rings by 50%; organ bath, 37° C., 0.1% DMSO
Experimental: B-1. Vasorelaxant effect in vitro
Rabbits are stunned by a blow to the neck and exsanguinated. The aorta is removed, freed from adhering tissue and divided into rings of a width of 1.5 mm The rings are placed individually under an initial tension in 5 ml organ baths with Krebs-Henseleit solution which is at 37° C., is gassed with carbogen and has the following composition (in each case mM): NaCl: 119; KCl: 4.8; CaCl2×2 H2O: 1; MgSO4×7 H2O: 1.4; KH2PO4: 1.2; NaHCO3: 25; glucose: 10. The force of contraction is detected with Statham UC2 cells, amplified and digitized via A/D converters (DAS-1802 HC, Keithley Instruments, Munich) and recorded in parallel on chart recorders. Contractions are induced by cumulatively adding increasing concentrations of phenylephrine to the bath. After several control cycles, the substance to be investigated is added in each further run in increasing dosage, and the height of the contraction achieved is compared with the height of the contraction reached in the last preceding one. The concentration necessary to reduce the height of the control value by 50% is calculated from this (IC50 value). The standard application volume is […] the proportion of DMSO in the bath solution corresponds to 0.1%.

IC50 [µM] | SMILES
2.15 | Nc1nc(-n2nc(Sc3ccccc3F)c3ccccc32)nc(N)c1N [Example 3, 2-{3-[(2-Fluorophenyl)sulphanyl]-1H-indazol-1-yl}pyrimidine-4,5,6-triamine]
5.64 | CC(C)OC(=O)Nc1c(N)nc(-n2nc(Oc3ccccc3F)c3ccccc32)nc1N [Example 19, Propan-2-yl{4,6-diamino-2-[3-(2-fluorophenoxy)-1H-indazol-1-yl]pyrimidin-5-yl}carbamate]
4.93 | CC(C)OC(=O)Nc1c(N)nc(-n2nc(Sc3ccccc3F)c3ccccc32)nc1N [Example 12, Propan-2-yl (4,6-diamino-2-[3-[(2-fluorophenyl)sulphanyl]-1H-indazol-1-yl]pyrimidin-5-yl)-carbamate]
1.43 | CC(C)OC(=O)Nc1c(N)nc(-n2nc(Sc3ccccc3F)c3ncccc32)nc1N [Example 9, Propan-2-yl (4,6-diamino-2-{3-[(2-fluorophenyl)sulphanyl]-1H-pyrazolo[4,3-b]pyridin-1-yl}pyrimidin-5-yl)carbamate]
